Test system: Halo-PCNA U2OS cells
Assay: Cell cycle phase assignment by machine learning model in Halo-PCNA U2OS cells
Type: cell-based
Conditions: 2 mM Thymidine (S-phase block) or RO-3306 (G2-M block) per FIG. 20B legend
Protocol: Time-lapse microscopy was conducted on Halo-PCNA labeled with 50 nM JFX650, to achieve near-saturating labeling, for 12 hours at 12 frames per hour (FIG. 21A). A machine learning model was then trained using both manually assigned cell stages and time-based progression resulting in both a G1, early S, mid S, late S, G2 and mitosis classifier as well as a regression prediction across the continuum of the cell cycle (FIG. 21B). The predicted cell cycle classification performed well as compared to manual annotation (FIG. 21C). Clear progression of individual cells through the cell cycle was observed when regression prediction was plotted across the time series (FIG. 21D). […] When cells in each cell phase were analyzed separately, it became apparent that the slow-moving population of PCNA was exclusively found in cell predicted to be in S-phase and that there was a marked decrease in the fast-moving population (FIG. 20E). Mean diffusion coefficient of PCNA was then measured for 4,081 individual cells to characterize heterogeneity across the cell population, which is described in large part by cell cycle (FIG. 20F).
Cell cycle as provided above can be automatically determined using an image (e.g., an image of JF549-labeled PCNA). […]

SMILES	fraction of cells assigned to cell phases
O=C1NC(=NCc2cccs2)S/C1=C\c1ccc2ncccc2c1 [RO-3306]	expected enrichment in the fraction of cells assigned to the respective cell phases
Cc1cn([C@H]2C[C@H](O)[C@@H](CO)O2)c(=O)[nH]c1=O [thymidine]	expected enrichment in the fraction of cells assigned to the respective cell phases

— patent US20260168987A1, “OBLIQUE LINE SCANNER SYSTEMS AND METHODS FOR HIGH THROUGHPUT SINGLE MOLECULE TRACKING IN LIVING CELLS” (EIKON THERAPEUTICS, INC., priority 2022, published 2026)
